Reference: patent US20100189660A1, “METHODS FOR THE DETECTION OF FATTY-ACYLATED PROTEIN” (Genentech, Inc., priority 2009, published 2010)

What was measured:
[1] = system: MDCK cells; test: Specificity of incorporation: cycloheximide treatment and competition with myristic and palmitic acids; format: cell-based, canine; conditions: for probe specificity from competition experiments with myristic and palmitic acids: increasing concentration of myristic (MA) or palmitic acid (PA)
Protocol: MDCK cells were treated with C14 ω-alkynyl fatty acid (100 μM) in the presence or absence cycloheximide (100 μg/ml) for 5 h. Cellular proteome was prepared, reacted with biotin-azide, resolved by gel electrophoresis and detected by western blotting with streptavidin-HRP, as described using methods described herein. Asterisks denote bands labeled by treatment with probe but not in DMSO control; (B, C) Dose-dependent competition of C14 and C16 ω-alkynyl fatty acids with myristic (MA) and palmitic acids (PA), respectively. MDCK cells were treated with ω-alkynyl fatty acid probes as indicated in the presence of increasing concentration of myristic (MA) and palmitic acids (PA). Samples were processed as described herein.
The ω-alkynyl fatty-acyls were metabolically incorporated onto cellular proteins in a time- and dose-dependent manner.
Cells were seeded with complete media onto 6-well plates (8×10^5 cells/2 ml/well). They were incubated for 24 h before the treatment. Then the growth medium was removed, cells washed once with PBS and 2 mL of the ω-alkynyl fatty-acyls containing media was added to cells and incubated at 37° C. in a 5% CO2 humidified incubator. After 24 hours, the cells were washed three times with cold PBS and cell extracts were prepared by resuspending the cells in 400 μL of lysis buffer (1% Nonidet P-40/150 mM NaCl/protease and phosphatase inhibitor/100 mM sodium phosphate, pH 7.5). To obtain a final proteome concentration of 2 mg/ml (protein concentration determined by BCA kit) cell lysates were concentrated by centrifugation for 15 minutes at 14,000 rpm at 4° C. with the Centrifugal Ultrafiltration Devices (Pall centrifugal devices MWCO 3K, Nanosep device, cat # P/N ODOO3C34). […]
Western blotting: Labeled protein lysates were resolved by SDS page using a 4-20% Tris-glycine gel (1 h 10 min at 180V). […] After the hydroxylamine treatment, the membranes were blocked with 5% non-fat dried milk for 2 h at RT or overnight at 4° C. and analyzed by streptavidin blot as described above.

[2] = system: MDCK cells; test: Hydroxylamine-sensitive assay of alkyne-labeled proteins (thioester vs amide linkage); format: cell-based, canine; conditions: blots treated with 5% hydroxylamine for 72 h
Protocol: These experiments validate the utility of C14 and C16 ω-alkynyl fatty-acyls as probes for protein myristoylation and palmitoylation, respectively.
(§1) Western blotting: Labeled protein lysates were resolved by SDS page using a 4-20% Tris-glycine gel (1 h 10 min at 180V). For immunoblotting of biotin-labeled proteins after electrophoresis, proteins were transferred onto a nitrocellulose membrane, which was blocked with PBS, 0.1% Tween-20 [PBST] and 5% non-fat dried milk for 2 h at RT or overnight at 4° C. The membrane was washed three times with PBST (5 minutes each), and incubated with streptavidin-horseradish peroxidase (Invitrogen Zymed #43-4323, 1:1250 in PBST) for 1 h at RT. The membrane was washed with PBST three times (10 min each) and developed using enhanced chemiluminescence according to manufacturer's recommendation (Amersham Biosciences). For the hydroxylamine-sensitive assay, following the transfer of proteins to nitrocellulose membranes, the membranes were incubated 65 to 72 h at RT with PBST and 5% NH2OH (Sigma-Aldrich). After the hydroxylamine treatment, the membranes were blocked with 5% non-fat dried milk for 2 h at RT or overnight at 4° C. and analyzed by streptavidin blot as described above.

[3] = system: PC3 prostate cancer cells; test: Fluorescence microscopy of cellular fatty-acylated proteins; format: cell-based; conditions: for subcellular distribution of probe: PC3 cells, 100 μM, 3 h, confocal microscopy
Protocol: Cells were treated with DMSO or ω-alkynyl fatty-acyls (100 μM) as indicated for 3 h. The cells were then fixed, permeabilized and click reacted with rhodamine-azide and imaged by epifluorescence microscopy. […] All images were acquired the same way using 63× oil objective. The fluorescence along the z-axis is shown on top of each confocal section (Scale bar, 10 μm); (J, K, L) The distribution of lipid-modified proteins in different cellular states can be monitored by fluorescence imaging. […] The fluorescence along the z-axis is shown on the left-hand side of panel (K).
Cells were then fixed, permeabilized and click reacted with biotin-azide followed with treatment with streptavidin-conjugated Alexa488 and (optionally Hoechst stain for nuclei staining) and imaged using epifluorescence microscopy technique as described herein.
Fluorescence microscopy: Cells were seeded onto 12-well plates (4×10^5 cells/well) containing coverslips and incubated for 24 h before treatment. The growth medium was removed and cells were washed once with PBS before adding 1 mL of medium containing the co-alkynyl fatty acid at the indicated concentration. After 24-48 h incubation at 37° C./5% CO2, cells were washed three times with PBS to remove excess probe (ω-alkynyl fatty acid) and fixed with 4% paraformaldehyde (PFA) for 10 min at RT. Cells were then permeabilized with PBS/0.1% triton X-100 for 1-2 min at RT, washed extensively with the following reagents: 0.1 mM biotin-azide or rhodamine-azide, 1 mM Tris (2-carboxyethyl)phosphine hydrochloride (TCEP) dissolved in water, and 1 mM CuSO4 in PBS at RT for 1 h. The labeled cells were rinsed extensively with PBS and blocked in PBS/5% BSA for 45 min at RT. Cells were stained with streptavidin-conjugated AlexaFluor 488 (Invitrogen cat # S32354, 1:500) in PBS/5% BSA for 45 min at RT and nuclei were stained with Hoechst 33342 (MP # H21492; 1:10,000 in PBS) for 10 min at RT. For labeling with rhodamine-azide, cells were directly stained with Hoechst.

[4] = system: MDCK cells; test: Metabolic incorporation of ω-alkynyl fatty-acyls onto cellular proteins, click with biotin-azide, streptavidin-HRP western blot; format: cell-based, canine; conditions: for degree of protein incorporation / time dependence of levels of labeled protein bands: 100 μM; for degree of protein incorporation: 24 h, western blot with streptavidin-HRP; for time dependence of levels of labeled protein bands: within 6 h; for dose dependence of metabolic incorporation: increasing concentration, at 4 h
Text: Upon preparing the cellular proteome, the alkynyl group incorporated onto acylated proteins was chemoselectively ligated to azide-tagged biotin (for synthesis see Example 2) or fluorophore by a Cu(I)-catalyzed Huisgen alkyne-azide cycloaddition reaction (See, Wang, Q. et al. J. Am. Chem. Soc. 125, 3192-3193 (2003)) (FIG. 1C). The conjugated proteins were separated by gel electrophoresis and analyzed by Western blot using streptavidin-linked horseradish peroxidase (FIG. 2A). […] This was reasonable considering that the majority of protein lipid modifications in cells comprise myristoylation and palmitoylation.
Labeling and detection of lipoproteins in cell extracts: The ω-alkynl fatty-acyl compounds used for the examples were dissolved in DMSO to generate 50 mM stock solutions, and were stored at −80° C. Before cell treatment, the analogs were dissolved in DMEM serum-free media supplemented with 5% BSA (fatty acid-free—SIGMA EC232-936-2) and glutamax (for Raw and MDCK cell lines) at a final concentration of 100 μM. The fatty acid-media solutions were sonicated for 15 minutes at room temperature and then allowed to pre-complex for 15 min at RT.
Cells were seeded with complete media onto 6-well plates (8×10^5 cells/2 ml/well). They were incubated for 24 h before the treatment. Then the growth medium was removed, cells washed once with PBS and 2 mL of the ω-alkynyl fatty-acyls containing media was added to cells and incubated at 37° C. in a 5% CO2 humidified incubator. […] To obtain a final proteome concentration of 2 mg/ml (protein concentration determined by BCA kit) cell lysates were concentrated by centrifugation for 15 minutes at 14,000 rpm at 4° C. with the Centrifugal Ultrafiltration Devices (Pall centrifugal devices MWCO 3K, Nanosep device, cat # P/N ODOO3C34). Protein extracts were then subjected to the probe labeling reaction in 25 μL volume, for 1 h at RT (room temperature), at final concentrations of the following reagents (See, Speers, A. E. & Cravatt, B. F. Profiling enzyme activities in vivo using click chemistry methods. Chem Biol 11, 535-46 (2004); Hsu, T. L. et al. Alkynyl sugar analogs for the labeling and visualization of glycoconjugates in cells. Proc Natl Acad Sci USA 104, 2614-9 (2007)): 0.1 mM biotin-azide, 1 mM Tris (2-carboxyethyl)phosphine hydrochloride (TCEP, Sigma-Aldrich) dissolved in water, 0.2 mM Tris[(1-benzyl-1H-1,2,3-triazol-4-yl)methyl]amine (TBTA, Sigma-Aldrich) dissolved in DMSO/t-butanol (20%/80%) and 1 mM CuSO4 in PBS. The order of addition of the reagents to the protein extracts is important for the reaction and has to be followed as described above.
as §1

[5] = PC3 cells undergoing cell division, tubulin marker

| SMILES | probe specificity from competition experiments with myristic and palmitic acids [1] | sensitivity of labeled proteins to hydroxylamine / type of linkage [2] | subcellular distribution of probe [3] | degree of protein incorporation [4] | time dependence of levels of labeled protein bands [4] | dose dependence of metabolic incorporation [4] | distribution of labeled proteins during cytokinesis [3, 5] | distribution of labeled proteins in metaphase cells [3, 5] | effect on protein labeling with C14 ([1]; C14 100 μM, cycloheximide 100 μg/ml, 5 h) |
| --- | --- | --- | --- | --- | --- | --- | --- | --- | --- |
| C#CCCCCCCCCCCCC(=O)O [C14, 13-Tetradecyn-1-oic acid] | specific probes for protein N-myristoylation | resistance to hydroxylamine treatment | distributed in a punctuate pattern outside the nucleus | highest degree of protein incorporation | time-dependent increase in the levels of labeled protein bands | dose-dependent metabolic incorporation | – | – | – |
| C#CCCCCCCCCCCCCCC(=O)O [C16, 15-Hexadecyn-1-oic acid] | S-palmitoylation | substantial sensitivity to hydroxylamine | distributed in a punctuate pattern outside the nucleus | highest degree of protein incorporation | time-dependent increase in the levels of labeled protein bands | dose-dependent metabolic incorporation | concentrate at the cleavage furrow | at the plasma membrane and in dense structures around the spindle and throughout the body | – |
| C#CCCCCCCCC(=O)O [C11] | – | predominantly attach via thioester bonds | – | – | – | – | – | – | – |
| C[C@@H]1C[C@@H]([C@H](O)CC2CC(=O)NC(=O)C2)C(=O)[C@@H](C)C1 [cycloheximide, reference compound] | – | – | – | – | – | – | – | – | inhibits protein labeling with C14 |
